The NIST ThermoML archive (doi:10.1016/j.jct.2011.07.006)
Numbers after ± are expanded uncertainties.

Test: xn = mol fraction of the nth substance listed
Settings: Gas, Buoyancy - hydrostatic balance with magnetic suspension - one sinker

N#N [nitrogen] + O=C=O
mass density [kg/m3]
Settings | x2 = 0.1001 | x2 = 0.1505
250.04 K, 12011 kPa | 188.824 ± 0.51 | –
250.04 K, 14015 kPa | 220.196 ± 0.63 | –
250.04 K, 16024 kPa | 250.228 ± 0.74 | –
250.04 K, 18041 kPa | 278.626 ± 0.83 | –
250.04 K, 19866 kPa | 302.682 ± 0.88 | –
250.05 K, 1985.1 kPa | 29 ± 0.043 | –
250.05 K, 3997.3 kPa | 59.733 ± 0.1 | –
250.05 K, 5998.8 kPa | 91.41 ± 0.18 | –
250.05 K, 8000 kPa | 123.81 ± 0.27 | –
250.05 K, 10007 kPa | 156.529 ± 0.39 | –
250.06 K, 1944.1 kPa | – | 29.337 ± 0.044
250.06 K, 3982.7 kPa | – | 61.879 ± 0.14
250.06 K, 5984.1 kPa | – | 95.441 ± 0.2
250.06 K, 7996.2 kPa | – | 130.387 ± 0.29
250.06 K, 16016 kPa | – | 267.875 ± 0.69
250.06 K, 18019 kPa | – | 298.361 ± 0.78
250.06 K, 19997 kPa | – | 326.225 ± 0.87
250.07 K, 10003 kPa | – | 165.836 ± 0.38
250.07 K, 12006 kPa | – | 201.013 ± 0.49
250.07 K, 14014 kPa | – | 235.308 ± 0.59
275.01 K, 6002 kPa | 80.825 ± 0.13 | –
275.01 K, 7997.9 kPa | 108.505 ± 0.18 | –
275.02 K, 1988.5 kPa | – | 26.992 ± 0.079
275.02 K, 3997.1 kPa | 53.276 ± 0.083 | –
275.02 K, 4000.6 kPa | – | 55.255 ± 0.11
275.02 K, 5998 kPa | – | 84.088 ± 0.17
275.02 K, 7994.3 kPa | – | 113.405 ± 0.25
275.02 K, 10004 kPa | 136.29 ± 0.24 | –
275.02 K, 12009 kPa | 163.678 ± 0.31 | –
275.02 K, 14013 kPa | 190.433 ± 0.38 | –
275.02 K, 16022 kPa | 216.33 ± 0.45 | –
275.02 K, 18057 kPa | 241.448 ± 0.51 | –
275.02 K, 19841 kPa | 262.442 ± 0.4 | –
275.03 K, 9995.5 kPa | – | 142.952 ± 0.33
275.03 K, 12000 kPa | – | 172.315 ± 0.42
275.03 K, 14001 kPa | – | 201.02 ± 0.51
275.03 K, 15981 kPa | – | 228.492 ± 0.6
275.03 K, 17994 kPa | – | 255.193 ± 0.67
275.03 K, 19983 kPa | – | 280.214 ± 0.8
299.96 K, 17994 kPa | – | 224.784 ± 0.5
299.96 K, 19165 kPa | 226.098 ± 0.5 | –
299.96 K, 19977 kPa | – | 247.119 ± 0.54
299.97 K, 1992.1 kPa | – | 24.615 ± 0.039
299.97 K, 1997.9 kPa | 23.945 ± 0.024 | –
299.97 K, 3982.3 kPa | – | 49.692 ± 0.094
299.97 K, 3996.5 kPa | 48.22 ± 0.077 | –
299.97 K, 5996.4 kPa | 72.692 ± 0.11 | –
299.97 K, 5999.2 kPa | – | 75.467 ± 0.14
299.97 K, 7999.7 kPa | 97.214 ± 0.15 | –
299.97 K, 8007.8 kPa | – | 101.3 ± 0.19
299.97 K, 10002 kPa | 121.553 ± 0.2 | –
299.97 K, 10003 kPa | – | 126.921 ± 0.25
299.97 K, 12006 kPa | 145.55 ± 0.25 | –
299.97 K, 12008 kPa | – | 152.379 ± 0.32
299.97 K, 13991 kPa | – | 177.09 ± 0.38
299.97 K, 14010 kPa | 169.025 ± 0.3 | –
299.97 K, 15969 kPa | – | 201.068 ± 0.44
299.97 K, 16014 kPa | 191.829 ± 0.36 | –
299.97 K, 17869 kPa | 212.244 ± 0.41 | –
324.98 K, 1996 kPa | 21.979 ± 0.027 | –
324.98 K, 1996.1 kPa | – | 22.645 ± 0.034
324.98 K, 3995.9 kPa | – | 45.557 ± 0.081
324.98 K, 3996.2 kPa | 44.111 ± 0.071 | –
324.98 K, 5991.8 kPa | 66.201 ± 0.1 | –
324.98 K, 5996.6 kPa | – | 68.599 ± 0.12
324.98 K, 7997.6 kPa | – | 91.632 ± 0.16
324.98 K, 8019.2 kPa | 88.521 ± 0.13 | –
324.98 K, 9996.9 kPa | – | 114.495 ± 0.2
324.98 K, 9998.9 kPa | 110.087 ± 0.17 | –
324.98 K, 11991 kPa | – | 137.002 ± 0.25
324.98 K, 11999 kPa | 131.525 ± 0.21 | –
324.98 K, 13983 kPa | 152.335 ± 0.26 | –
324.98 K, 14014 kPa | – | 159.405 ± 0.3
324.98 K, 16001 kPa | 172.971 ± 0.3 | –
324.98 K, 16006 kPa | – | 180.933 ± 0.35
324.98 K, 18001 kPa | 192.79 ± 0.34 | –
324.98 K, 18016 kPa | – | 202.007 ± 0.4
324.98 K, 19621 kPa | 208.36 ± 0.34 | –
324.98 K, 19978 kPa | – | 221.898 ± 0.46
349.96 K, 1996.1 kPa | 20.34 ± 0.025 | –
349.96 K, 3996.6 kPa | 40.709 ± 0.065 | –
349.96 K, 5996.7 kPa | 60.978 ± 0.091 | –
349.97 K, 1995.9 kPa | – | 20.947 ± 0.031
349.97 K, 3995.3 kPa | – | 41.993 ± 0.072
349.97 K, 5996.9 kPa | – | 63.049 ± 0.1
349.97 K, 7995.4 kPa | – | 83.959 ± 0.14
349.97 K, 7995.8 kPa | 81.051 ± 0.12 | –
349.97 K, 9997.5 kPa | 100.892 ± 0.15 | –
349.97 K, 9999.5 kPa | – | 104.724 ± 0.17
349.97 K, 11998 kPa | 120.373 ± 0.19 | 125.127 ± 0.21
349.97 K, 13995 kPa | 139.425 ± 0.22 | –
349.97 K, 14004 kPa | – | 145.221 ± 0.25
349.97 K, 16000 kPa | 158.084 ± 0.26 | –
349.97 K, 16008 kPa | – | 164.842 ± 0.29
349.97 K, 17994 kPa | 176.127 ± 0.29 | –
349.97 K, 18008 kPa | – | 183.902 ± 0.33
349.97 K, 19378 kPa | 188.339 ± 0.23 | –
349.97 K, 19983 kPa | – | 202.168 ± 0.37
374.95 K, 1963.6 kPa | – | 19.172 ± 0.028
374.95 K, 3953.7 kPa | – | 38.571 ± 0.065
374.95 K, 5995.6 kPa | – | 58.378 ± 0.09
374.95 K, 7997.3 kPa | – | 77.627 ± 0.12
374.95 K, 9986.3 kPa | – | 96.527 ± 0.15
374.95 K, 11945 kPa | – | 114.852 ± 0.18
374.96 K, 13990 kPa | – | 133.615 ± 0.22
374.96 K, 15999 kPa | – | 151.646 ± 0.25
374.96 K, 17992 kPa | – | 169.101 ± 0.29
374.96 K, 19972 kPa | – | 185.971 ± 0.28
374.97 K, 1974.6 kPa | 18.733 ± 0.023 | –
374.97 K, 3962.2 kPa | 37.494 ± 0.06 | –
374.97 K, 5994.5 kPa | 56.518 ± 0.083 | –
374.97 K, 7989.9 kPa | 74.983 ± 0.11 | –
374.97 K, 9982.5 kPa | 93.148 ± 0.14 | –
374.97 K, 11981 kPa | 111.044 ± 0.16 | –
374.97 K, 13972 kPa | 128.504 ± 0.2 | –
374.97 K, 15966 kPa | 145.587 ± 0.23 | –
374.98 K, 17960 kPa | 162.237 ± 0.25 | –
374.98 K, 18719 kPa | 168.45 ± 0.27 | –
400.02 K, 1995.3 kPa | – | 18.223 ± 0.023
400.02 K, 3995.7 kPa | – | 36.397 ± 0.056
400.02 K, 5995.4 kPa | – | 54.424 ± 0.077
400.02 K, 7991.2 kPa | – | 72.219 ± 0.1
400.02 K, 9990.8 kPa | – | 89.804 ± 0.12
400.02 K, 11986 kPa | – | 107.065 ± 0.15
400.02 K, 13988 kPa | – | 124.054 ± 0.18
400.02 K, 15977 kPa | – | 140.583 ± 0.21
400.02 K, 17818 kPa | – | 155.538 ± 0.24
400.03 K, 3994.9 kPa | 35.321 ± 0.059 | –
400.03 K, 9992.9 kPa | 86.844 ± 0.13 | –
400.04 K, 1995.9 kPa | 17.722 ± 0.023 | –
400.04 K, 5992.1 kPa | 52.72 ± 0.081 | –
400.04 K, 7980.9 kPa | 69.818 ± 0.1 | –
400.04 K, 11987 kPa | 103.403 ± 0.16 | –
400.04 K, 13992 kPa | 119.725 ± 0.19 | –
400.04 K, 15984 kPa | 135.572 ± 0.21 | –
400.04 K, 17815 kPa | 149.796 ± 0.24 | –
400.04 K, 18908 kPa | 158.136 ± 0.24 | –
